Legend:
Carbonic anhydrase 1 = Carbonic anhydrase 1 (Homo sapiens, UniProt P00915); experiment: Inhibition of recombinant human carbonic anhydrase-1 assessed as reduction in CO2 hydration preincubated for 10 mins measured for 5 to 10 secs by stopped flow assay
Carbonic anhydrase 2 = Carbonic anhydrase 2 (Homo sapiens, UniProt P00918); experiment: Inhibition of recombinant human carbonic anhydrase-2 assessed as reduction in CO2 hydration preincubated for 10 mins measured for 5 to 10 secs by stopped flow assay
Carbonic anhydrase 9 = Carbonic anhydrase 9 (Homo sapiens, UniProt Q16790)
Description: Inhibition of recombinant human carbonic anhydrase-9 assessed as reduction in CO2 hydration preincubated for 10 mins measured for 5 to 10 secs by stopped flow assay

Carbonic anhydrase 12 = Carbonic anhydrase 12 (Homo sapiens, UniProt O43570); experiment: Inhibition of recombinant human carbonic anhydrase-12 assessed as reduction in CO2 hydration preincubated for 10 mins measured for 5 to 10 secs by stopped flow assay
Carbonic anhydrase 12, sequence (O43570 whole entry): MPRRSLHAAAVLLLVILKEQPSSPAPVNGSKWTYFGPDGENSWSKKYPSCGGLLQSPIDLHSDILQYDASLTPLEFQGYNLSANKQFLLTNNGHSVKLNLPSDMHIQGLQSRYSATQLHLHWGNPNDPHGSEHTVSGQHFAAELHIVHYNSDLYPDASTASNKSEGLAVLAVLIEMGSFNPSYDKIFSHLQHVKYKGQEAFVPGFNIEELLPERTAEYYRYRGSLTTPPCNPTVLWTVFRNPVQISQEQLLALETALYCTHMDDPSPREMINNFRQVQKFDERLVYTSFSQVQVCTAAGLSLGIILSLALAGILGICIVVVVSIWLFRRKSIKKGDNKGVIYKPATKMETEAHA

Carbonic anhydrase 1, sequence (P00915 whole entry): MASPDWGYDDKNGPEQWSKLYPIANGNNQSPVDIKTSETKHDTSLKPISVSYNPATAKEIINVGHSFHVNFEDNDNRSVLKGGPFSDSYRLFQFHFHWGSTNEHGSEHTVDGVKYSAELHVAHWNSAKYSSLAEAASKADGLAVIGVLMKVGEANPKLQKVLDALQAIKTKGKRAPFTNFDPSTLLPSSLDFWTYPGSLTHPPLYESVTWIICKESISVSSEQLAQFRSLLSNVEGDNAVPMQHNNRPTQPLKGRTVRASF

SMILES	Ki (Carbonic anhydrase 1) [nM]	Ki (Carbonic anhydrase 2) [nM]	Ki (Carbonic anhydrase 9) [nM]	Ki (Carbonic anhydrase 12) [nM]
CC#CCNS(=O)(=O)c1ccccc1C(=O)O	> 10000	> 10000	250	
O=C1c2ccccc2S(=O)(=O)N1Cc1ccccc1	> 10000	> 10000	89.2	
O=C(O)c1ccccc1S(=O)(=O)NCc1ccccc1	> 10000		342	
CC#CCN1C(=O)c2ccccc2S1(=O)=O	> 10000	> 10000	563	
CCCCN1C(=O)c2ccccc2S1(=O)=O	> 10000	> 10000	164	
CCCCCNS(=O)(=O)c1ccccc1C(=O)O	> 10000	> 10000	392	
CCCNS(=O)(=O)c1ccccc1C(=O)O	> 10000	> 10000	481	
CCCCNS(=O)(=O)c1ccccc1C(=O)O	> 10000	> 10000	436	
CCN1C(=O)c2ccccc2S1(=O)=O	> 10000	> 10000	236	
O=C1c2ccccc2S(=O)(=O)N1CCc1ccccc1	> 10000	> 10000	76.1	10.4
CCCCCN1C(=O)c2ccccc2S1(=O)=O	> 10000	> 10000	102	34
CCCN1C(=O)c2ccccc2S1(=O)=O	> 10000	> 10000	209	
O=C(O)c1ccccc1S(=O)(=O)NCc1ccc(Br)cc1	> 10000		277	

— ChEMBL document CHEMBL4020728 (Bioorg Med Chem, 2017)
